Measurements as given in EP0341527A2, “Agent for increasing animal growth” (HOECHST AKTIENGESELLSCHAFT, priority 1988, dated 1989).

How the values were obtained:
[1] = system: männlichen Ratten; test: Feeding trial in male rats (growth, feed intake, feed conversion); assay type: in vivo; details: for Futterverwertung (g Futter/g Gewichtszunahme) relativ zur Kontrollgruppe in % / mittlere Futterverwertung relativ zur Kontrollgruppe in %: lower number = better feed conversion; for mittlere Futterverwertung relativ zur Kontrollgruppe in %: mean over 5-40 ppm Forskolin; for Futteraufnahme (g/d) / Futteraufnahme relativ zur Kontrolle / Gewicht (g) am Ende / Gewichtszunahme relativ zur Kontrolle (%): 28 d
Source text: In einem Fütterungsversuch mit 60 männlichen Ratten im Gewichtsabschnitt von 40 bis 170 g Lebendmasse wurde die Wirkung von 5, 10, 20 und 40 ppm Forskolin im Futter bei zwei verschiedenen Proteingehalten der Diäten (15 und 20 Gew.-% für eine suboptimale bzw. optimale Versorgung) auf das Wachstum, die Futteraufnahme und die Futterverwertung im Vergleich zum Futter ohne Gehalt an Forskolin untersucht. Die Diäten (Zusammensetzung siehe Tabelle 1) waren mit 16,6 und 16,8 kJ/g Trockensubstanz isokalorisch. Jeweils sechs Tiere wurden mit Futter gleichen Gehalts an Forskolin und Protein gefüttert und die Resultate für die Auswertung ermittelt. Die jeweiligen sechs Tiere wurden zu je zweien in Makrolonkäfigen in einer Klimakammer bei konstant 25°C und 65 % relativer Luftfeuchte 28 Tage lang gehalten.

[2] = system: Männliche Lohmann-Masthähnchen; test: Feeding trial in broilers (growth, feed intake, feed conversion); assay type: in vivo, Broilern; details: for Futteraufnahme (g/d) / Futteraufnahme, prozentualer Wert relativ zur Kontrollgruppe / Gewicht (Masse) am Ende, prozentualer Wert relativ zur Kontrollgruppe / Massezunahme, prozentualer Wert relativ zur Kontrollgruppe / Futterverwertung, prozentualer Wert relativ zur Kontrollgruppe / Gewicht (Masse) (g) am Ende / Massezunahme (g/d) / Futterverwertung g Futter/g Zunahme: 22 wt% protein; for Futterverwertung, prozentualer Wert relativ zur Kontrollgruppe / Futterverwertung g Futter/g Zunahme: lower = better; for Gewicht (Masse) (g) am Ende / Massezunahme (g/d) / Futterverwertung g Futter/g Zunahme: mean ± spread
Method: Männliche Lohmann-Masthähnchen mit einer Lebendmasse zwischen 35 und 45 g wurden in Gruppen von jeweils 20 Tieren pro Behandlung (100 cm²/Tier) auf einer Einstreu aus Hobelspänen bei 24-stündiger Beleuchtung und einer Temperatur von 36 ± 1°C bis zum 21. Versuchstag und 26 ± 1°C vom 22. bis zum 35. Versuchstag gehalten. Das Futter wurde ad libitum angeboten. Die Zusammensetzung des Futters (ohne Wirkstoff) ist in Tabelle 5 angegeben. Der Proteingehalt betrug 22 Gew.-% (entsprechend dem Bedarf). Forskolin wurde als Wurzelmehl über eine Glucose-Vormischung in die Ration eingebracht. Tabelle 5

[3] = 15 wt% crude protein diet, 5 ppm Forskolin in feed
[4] = 15 wt% crude protein diet, 10 ppm Forskolin in feed
[5] = 15 wt% crude protein diet, 20 ppm Forskolin in feed
[6] = 15 wt% crude protein diet, 40 ppm Forskolin in feed
[7] = 20 wt% crude protein diet, 5 ppm Forskolin in feed
[8] = 20 wt% crude protein diet, 10 ppm Forskolin in feed
[9] = 20 wt% crude protein diet, 20 ppm Forskolin in feed
[10] = 20 wt% crude protein diet, 40 ppm Forskolin in feed
[11] = 2 ppm Forskolin in feed (as root meal)
[12] = 4 ppm Forskolin in feed (as root meal)
[13] = 8 ppm Forskolin in feed (as root meal)
[14] = 16 ppm Forskolin in feed (as root meal)
[15] = 32 ppm Forskolin in feed (as root meal)
[16] = broilers, 'up to', 2-32 ppm Forskolin in feed

Compound: C=C[C@@]1(C)CC(=O)[C@]2(O)[C@@]3(C)[C@@H](O)CCC(C)(C)[C@@H]3[C@H](O)[C@H](OC(C)=O)[C@@]2(C)O1 [Forskolin]
- Zuwachs ([1]; 15 % protein, 5 ppm Forskolin): ca. 91 g
- Futterverwertung (g Futter/g Gewichtszunahme) relativ zur Kontrollgruppe in % ([1]; 15 % protein, 5 ppm Forskolin): 107,7%
- Zuwachs ([1]; 15 % protein, 10 ppm Forskolin): ~115 g
- Futterverwertung (g Futter/g Gewichtszunahme) relativ zur Kontrollgruppe in % ([1]; 15 % protein, 10 ppm Forskolin): 100,8%
- Zuwachs ([1]; 15 % protein, 20 ppm Forskolin): ~122 g
- Futterverwertung (g Futter/g Gewichtszunahme) relativ zur Kontrollgruppe in % ([1]; 15 % protein, 20 ppm Forskolin): 97,3%
- Futterverwertung (g Futter/g Gewichtszunahme) relativ zur Kontrollgruppe in % ([1]; 15 % protein, 40 ppm Forskolin): 109,3%
- mittlere Futterverwertung relativ zur Kontrollgruppe in % ([1]; 15 % protein): 103,7%
- gesteigerte Zunahme an Lebendmasse im Vergleich zur entsprechenden Kontrollgruppe ([1]; 15 and 20 wt% protein, up to 20 ppm Forskolin, within 28 days, 'up to'): ≤ 39%
- Gewichtszunahme (g/28 d) [1, 3]: 90,9 g/28 d
- Futteraufnahme (g/d) [1, 3]: 9,07 g/d
- Futteraufnahme relativ zur Kontrolle [1, 3]: 111,9
- Gewicht (g) am Ende [1, 3]: 131,3 g
- Gewichtszunahme relativ zur Kontrolle (%) [1, 3]: 103,6%
- Gewichtszunahme (g/28 d) [1, 4]: 115,1 g/28 d
- Futteraufnahme (g/d) [1, 4]: 10,70 g/d
- Futteraufnahme relativ zur Kontrolle [1, 4]: 132,2
- Gewicht (g) am Ende [1, 4]: 156,0 g
- Gewichtszunahme relativ zur Kontrolle (%) [1, 4]: 131,2%
- Gewichtszunahme (g/28 d) [1, 5]: 122,0 g/28 d
- Futteraufnahme (g/d) [1, 5]: 11,00 g/d
- Futteraufnahme relativ zur Kontrolle [1, 5]: 135,7
- Gewicht (g) am Ende [1, 5]: 162,6 g
- Gewichtszunahme relativ zur Kontrolle (%) [1, 5]: 139,1%
- Gewichtszunahme (g/28 d) [1, 6]: 81,8 g/28 d
- Futteraufnahme (g/d) [1, 6]: 8,26 g/d
- Futteraufnahme relativ zur Kontrolle [1, 6]: 101,8
- Gewicht (g) am Ende [1, 6]: 122,3 g
- Gewichtszunahme relativ zur Kontrolle (%) [1, 6]: 93,3%
- Futterverwertung erhöht ([1]; 20 % protein content, 'up to about', refers to mean feed conversion of Table 4): ≤ 8%
- Futterverwertung (g Futter/g Gewichtszunahme) relativ zur Kontrollgruppe in % ([1]; 20 % protein, 5 ppm Forskolin): 92,4%
- Zuwachs ([1]; 20 % protein, 10 ppm Forskolin): ~113 g
- Futterverwertung (g Futter/g Gewichtszunahme) relativ zur Kontrollgruppe in % ([1]; 20 % protein, 10 ppm Forskolin): 93,8%
- Zuwachs ([1]; 20 % protein, 20 ppm Forskolin): ~121 g
- Futterverwertung (g Futter/g Gewichtszunahme) relativ zur Kontrollgruppe in % ([1]; 20 % protein, 20 ppm Forskolin): 90,5%
- Futterverwertung (g Futter/g Gewichtszunahme) relativ zur Kontrollgruppe in % ([1]; 20 % protein, 40 ppm Forskolin): 92,0%
- mittlere Futterverwertung relativ zur Kontrollgruppe in % ([1]; 20 % protein): 92,2%
- Gewichtszunahme (g/28 d) [1, 7]: 117,6 g/28 d
- Futteraufnahme (g/d) [1, 7]: 10,70 g/d
- Futteraufnahme relativ zur Kontrolle [1, 7]: 115,7
- Gewicht (g) am Ende [1, 7]: 157,7 g
- Gewichtszunahme relativ zur Kontrolle (%) [1, 7]: 124,4%
- Gewichtszunahme (g/28 d) [1, 8]: 112,9 g/28 d
- Futteraufnahme (g/d) [1, 8]: 10,40 g/d
- Futteraufnahme relativ zur Kontrolle [1, 8]: 112,4
- Gewicht (g) am Ende [1, 8]: 153,2 g
- Gewichtszunahme relativ zur Kontrolle (%) [1, 8]: 119,9%
- Gewichtszunahme (g/28 d) [1, 9]: 120,5 g/28 d
- Futteraufnahme (g/d) [1, 9]: 10,70 g/d
- Futteraufnahme relativ zur Kontrolle [1, 9]: 115,7
- Gewicht (g) am Ende [1, 9]: 161,9 g
- Gewichtszunahme relativ zur Kontrolle (%) [1, 9]: 127,9%
- Gewichtszunahme (g/28 d) [1, 10]: 103,1 g/28 d
- Futteraufnahme (g/d) [1, 10]: 9,31 g/d
- Futteraufnahme relativ zur Kontrolle [1, 10]: 100,6
- Gewicht (g) am Ende [1, 10]: 143,0 g
- Gewichtszunahme relativ zur Kontrolle (%) [1, 10]: 109,4%
- Futteraufnahme (g/d) [2, 11]: 88,4 g/d
- Futteraufnahme, prozentualer Wert relativ zur Kontrollgruppe [2, 11]: 104,0%
- Gewicht (Masse) am Ende, prozentualer Wert relativ zur Kontrollgruppe [2, 11]: 108,5%
- Massezunahme, prozentualer Wert relativ zur Kontrollgruppe [2, 11]: 109,0%
- Futterverwertung, prozentualer Wert relativ zur Kontrollgruppe [2, 11]: 94,6%
- Gewicht (Masse) (g) am Ende [2, 11]: 1715,2±196,2 g
- Massezunahme (g/d) [2, 11]: 45,4±5,4 g/d
- Futterverwertung g Futter/g Zunahme [2, 11]: 1,97±0,24 g Futter/g Zunahme
- Futteraufnahme (g/d) [2, 12]: 86,2 g/d
- Futteraufnahme, prozentualer Wert relativ zur Kontrollgruppe [2, 12]: 101,6%
- Gewicht (Masse) am Ende, prozentualer Wert relativ zur Kontrollgruppe [2, 12]: 106,4%
- Massezunahme, prozentualer Wert relativ zur Kontrollgruppe [2, 12]: 106,0%
- Futterverwertung, prozentualer Wert relativ zur Kontrollgruppe [2, 12]: 95,7%
- Gewicht (Masse) (g) am Ende [2, 12]: 1682,5±253,7 g
- Massezunahme (g/d) [2, 12]: 44,4±6,9 g/d
- Futterverwertung g Futter/g Zunahme [2, 12]: 1,99±0,38 g Futter/g Zunahme
- Futteraufnahme (g/d) [2, 13]: 83,8 g/d
- Futteraufnahme, prozentualer Wert relativ zur Kontrollgruppe [2, 13]: 98,7%
- Gewicht (Masse) am Ende, prozentualer Wert relativ zur Kontrollgruppe [2, 13]: 103,9%
- Massezunahme, prozentualer Wert relativ zur Kontrollgruppe [2, 13]: 104,3%
- Futterverwertung, prozentualer Wert relativ zur Kontrollgruppe [2, 13]: 93,8%
- Gewicht (Masse) (g) am Ende [2, 13]: 1643,0±192,3 g
- Massezunahme (g/d) [2, 13]: 43,5±5,3 g/d
- Futterverwertung g Futter/g Zunahme [2, 13]: 1,95±0,24 g Futter/g Zunahme
- Futteraufnahme (g/d) [2, 14]: 86,7 g/d
- Futteraufnahme, prozentualer Wert relativ zur Kontrollgruppe [2, 14]: 102,0%
- Gewicht (Masse) am Ende, prozentualer Wert relativ zur Kontrollgruppe [2, 14]: 103,1%
- Massezunahme, prozentualer Wert relativ zur Kontrollgruppe [2, 14]: 103,4%
- Futterverwertung, prozentualer Wert relativ zur Kontrollgruppe [2, 14]: 97,9%
- Gewicht (Masse) (g) am Ende [2, 14]: 1629,5±242,4 g
- Massezunahme (g/d) [2, 14]: 43,1±6,6 g/d
- Futterverwertung g Futter/g Zunahme [2, 14]: 2,04±0,33 g Futter/g Zunahme
- Futteraufnahme (g/d) [2, 15]: 86,4 g/d
- Futteraufnahme, prozentualer Wert relativ zur Kontrollgruppe [2, 15]: 101,8%
- Gewicht (Masse) am Ende, prozentualer Wert relativ zur Kontrollgruppe [2, 15]: 103,9%
- Massezunahme, prozentualer Wert relativ zur Kontrollgruppe [2, 15]: 103,9%
- Futterverwertung, prozentualer Wert relativ zur Kontrollgruppe [2, 15]: 97,2%
- Gewicht (Masse) (g) am Ende [2, 15]: 1642,7±182,9 g
- Massezunahme (g/d) [2, 15]: 43,3±5,0 g/d
- Futterverwertung g Futter/g Zunahme [2, 15]: 2,02±0,28 g Futter/g Zunahme
- Futterverwertung verbessert [2, 16]: ≤ 7%
- Lebendmassezunahme gegenüber der Kontrollgruppe verbessert [2, 16]: ≤ 9%
